Counter-ions that a name gives are not always drawn.
How the values were obtained:
CHK1 (kinase domain) = molecular target: T1, CHK1 (kinase domain) (Homo sapiens, UniProt O14757); assay: CHK1 Ki determination, spectrophotometric coupled (pyruvate kinase/lactate dehydrogenase) assay; type: biochemical; details: CHK-1 kinase domain; 150 uM ATP, 125 uM Syntide 2
T1 construct: a solution containing 1 nM of CHK1 (kinase domain)
T1 sequence (O14757 9-265 limits assumed): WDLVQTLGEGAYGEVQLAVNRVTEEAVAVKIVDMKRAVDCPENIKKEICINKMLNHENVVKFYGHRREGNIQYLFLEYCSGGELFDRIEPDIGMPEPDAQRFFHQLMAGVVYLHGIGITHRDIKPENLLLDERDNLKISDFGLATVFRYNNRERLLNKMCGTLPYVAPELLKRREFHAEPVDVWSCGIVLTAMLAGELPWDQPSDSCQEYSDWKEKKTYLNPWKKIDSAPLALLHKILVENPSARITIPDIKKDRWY
Method in brief: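 The CHK1 kinase domain was pre-incubated with compound for 15 min, and the reaction was started with 125 uM Syntide 2 and 150 uM ATP. ADP formation was coupled through pyruvate kinase/lactate dehydrogenase to NADH oxidation, read as the A340 decrease. Kiapp was fitted with a tight-binding equation that accounts for enzyme concentration and ATP Km; some entries are % inhibition.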

Mia Paca-2 cells = assay: Histone H3 (Ser10) phosphorylation ELISA, abrogation of camptothecin-induced G2 arrest (CHK-1 cellular assay); type: cell-based; details: camptothecin 8 hrs, then compound with nocodozole 16 hours
Method in brief: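 HeLa cells, or Mia Paca-2 where marked, were damaged with camptothecin for 8 h, then exposed to compound with nocodazole for 16 h. Mitotic entry was read as phospho-histone H3 (Ser10) by sandwich ELISA, with absorbance at 450 nm. EC50 came from four-parameter sigmoid fitting.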

[1] = Homo sapiens, MIA PaCa-2, Mia Paca-2 cells (entries marked *)
[2] = Homo sapiens, Mia Paca-2 cells (entries marked *)

Compound	Ki (CHK1 (kinase domain)) [nM]	EC50 (Mia Paca-2 cells; [1]) [nM]	EC50 (Mia Paca-2 cells; [2]) [nM]	EC50 (Mia Paca-2 cells; Mia Paca-2 cells (entries marked *)) [nM]
C[C@H]1NCCC[C@H]1Nc1cncc(-c2cnc3ccc(Cl)cn23)n1 [Example 226, 6-(6-chloroimidazo[1,2-a]pyridin-3-yl)-N-[(2R,3R)-2-methylpiperidin-3-yl]pyrazin-2-amine]	4.6	7.17		
CCOc1ccc2c(c1)ncn2-c1cncc(N[C@@H]2CCNC2)n1 [Example 217, 6-(5-ethoxy-1H-benzimidazol-1-yl)-N-[(3R)-pyrrolidin-3-yl]pyrazin-2-amine]	6.99		36.4	
CC1(COc2ccn3c(-c4cncc(N[C@@H]5CCNC5)n4)cnc3c2)COC1 [Example 154, 6-{7-[(3-methyloxetan-3-yl)methoxy]imidazo[1,2-a]pyridin-3-yl}-N-[(3R)-pyrrolidin-3-yl]pyrazin-2-amine]	3.9		602	
CC(CO)(CO)COc1ccc2c(c1)ncn2-c1cncc(N[C@@H]2CCCNC2)n1 [Example 256, 2-methyl-2-{[(1-{6-[(3R)-piperidin-3-ylamino]pyrazin-2-yl}-1H-benzimidazol-5-yl)oxy]methyl}propane-1,3-diol]	1.26		53.7	
C[C@H]1NCCC[C@H]1Nc1cncc(-c2cnn3ccncc23)n1 [Example 252, N-[(2R,3R)-2-methylpiperidin-3-yl]-6-(pyrazolo[1,5-a]pyrazin-3-yl)pyrazin-2-amine, acetate salt]	69.3		1110	
C[C@@H]1CNC[C@@H]1Nc1cncc(-c2cnn3ccncc23)n1 [Example 253, N-[(3R,4R)-4-methylpyrrolidin-3-yl]-6-(pyrazolo[1,5-a]pyrazin-3-yl)pyrazin-2-amine, acetate salt]	85.6		1030	
COc1ccc2ncc(-c3cncc(N[C@@H]4CCCNC4)n3)n2c1 [Example 7, 6-(6-Methoxyimidazo[1,2-a]pyridin-3-yl)-N-[(3R)-piperidin-3-yl]pyrazin-2-amine]	1.65		16.7	
CC1(COc2ccn3c(-c4cncc(N[C@@H]5CCCNC5)n4)cnc3c2)COC1 [Example 155, 6-{7-[(3-methyloxetan-3-yl)methoxy]imidazo[1,2-a]pyridin-3-yl}-N-[(3R)-piperidin-3-yl]pyrazin-2-amine]	1		46.1	
Clc1cc2c(cn1)ncn2-c1cncc(N[C@@H]2CCCNC2)n1 [Example 255, 6-(6-chloro-1H-imidazo[4,5-c]pyridin-1-yl)-N-[(3R)-piperidin-3-yl]pyrazin-2-amine]	34.5		597	
C[C@@H]1CCNC[C@@H]1Nc1cncc(-c2cnc3ccccn23)n1 [Example 204, 6-(imidazo[1,2-a]pyridin-3-yl)-N-[(3R,4R)-4-methylpiperidin-3-yl]pyrazin-2-amine]	54.5	74.9		
N#Cc1ncc(N[C@@H]2CCCNC2)nc1-c1cnc2ccccn12 [Example 20, 3-(imidazo[1,2-a]pyridin-3-yl)-5-[(3R)-piperidin-3-ylamino]pyrazine-2-carbonitrile]	930	10000		
COc1cc2ncn(-c3cncc(N[C@@H]4CCCNC4)n3)c2cn1 [Example 18, 6-(6-methoxy-3H-imidazo[4,5-c]pyridin-3-yl)-N-[(3R)-piperidin-3-yl]pyrazin-2-amine]	1.23		19.1	
CO[C@H]1CCNC[C@@H]1Nc1cncc(-c2cnc3ccccn23)n1 [Example 259, 6-(imidazo[1,2-a]pyridin-3-yl)-N-[(3S,4S)-4-methoxypiperidin-3-yl]pyrazin-2-amine]	3.82			38.8
COc1ccn2c(-c3cncc(N[C@@H]4C5CCN(CC5)[C@@H]4C)n3)cnc2c1 [Example 19, (2R,3R)—N-[6-(7-methoxyimidazo[1,2-a]pyridin-3-yl)pyrazin-2-yl]-2-methyl-1-azabicyclo[2.2.2]octan-3-amine]	167		10000	
FC(F)(F)c1ccc2ncc(-c3cncc(NC4CNCCC4(F)F)n3)n2c1 (stereo not drawn) [Example 231, N-(4,4-difluoropiperidin-3-yl)-6-[6-(trifluoromethyl)imidazo[1,2-a]pyridin-3-yl]pyrazin-2-amine]	28.6	20000		

The next lines start with the values.

Ki (CHK1 (kinase domain)) [nM]	EC50 (Mia Paca-2 cells; [1]) [nM]	EC50 (Mia Paca-2 cells; [2]) [nM]	EC50 (Mia Paca-2 cells; Mia Paca-2 cells (entries marked *)) [nM]	Compound
15.9		60.3		COC[C@@H]1C[C@@H](Nc2cncc(-c3cnc4cc(Cl)ccn34)n2)CN1 [Example 244, 6-(7-chloroimidazo[1,2-a]pyridin-3-yl)-N-[(3R,5S)-5-(methoxymethyl)pyrrolidin-3-yl]pyrazin-2-amine]
49.8		129		CC(C)OC[C@@H]1C[C@@H](Nc2cncc(-c3cnc4ccccn34)n2)CN1 [Example 158, 6-(imidazo[1,2-a]pyridin-3-yl)-N-{(3R,5S)-5-[(propan-2-yloxy)methyl]pyrrolidin-3-yl}pyrazin-2-amine]
24.8		172		CCOC[C@@H]1C[C@@H](Nc2cncc(-c3cnc4cc(OC)ccn34)n2)CN1 [Example 243, N-[(3R,5S)-5-(ethoxymethyl)pyrrolidin-3-yl]-6-(7-methoxyimidazo[1,2-a]pyridin-3-yl)pyrazin-2-amine]
4.72		85.9		OC[C@@H]1C[C@@H](Nc2cncc(-c3cnc4cc(Cl)ccn34)n2)CN1 [Example 245, [(2S,4R)-4-{[6-(7-chloroimidazo[1,2-a]pyridin-3-yl)pyrazin-2-yl]amino}pyrrolidin-2-yl]methanol]
2.49	18.3			Clc1ccc2ncc(-c3cncc(N[C@@H]4CCCNC4)n3)n2c1 [Example 5, 6-(6-Chloroimidazo[1,2-a]pyridin-3-yl)-N-[(3R)-piperidin-3-yl]pyrazin-2-amine]
28		129		COc1ccn2c(-c3cncc(N[C@H]4CN[C@H](COC(C)C)C4)n3)cnc2c1 [Example 242, 6-(7-methoxyimidazo[1,2-a]pyridin-3-yl)-N-{(3R,5S)-5-[(propan-2-yloxy)methyl]pyrrolidin-3-yl}pyrazin-2-amine]
2.98		46.7		Cc1cn2c(-c3cncc(N[C@H]4CN[C@H](CO)C4)n3)cnc2s1 [Example 237, [(2S,4R)-4-{[6-(2-methylimidazo[2,1-b][1,3]thiazol-5-yl)pyrazin-2-yl]amino}pyrrolidin-2-yl]methanol]
78.7		548		COC[C@@H]1C[C@@H](Nc2cncc(-c3cnc4ccc(F)cn34)n2)CN1 [Example 266, 6-(6-fluoroimidazo[1,2-a]pyridin-3-yl)-N-[(3R,5S)-5-(methoxymethyl)pyrrolidin-3-yl]pyrazin-2-amine]
38.3	55.2			C[C@@H]1CCNC[C@@H]1Nc1cncc(-c2cnc3cc(Cl)ccn23)n1 [Example 205, 6-(7-chloroimidazo[1,2-a]pyridin-3-yl)-N-[(3R,4R)-4-methylpiperidin-3-yl]pyrazin-2-amine]

From US8518952B2, “6 substituted 2-heterocyclylamino pyrazine compounds as CHK-1 inhibitors” (Pfizer Inc., priority 2008, dated 2013)
